Reference: ChEMBL document CHEMBL4819085, “Dipyridyl-substituted thiosemicarbazone as a potent broad-spectrum inhibitor of metallo-β-lactamases” (Bioorg Med Chem, 2021)
≈ marks a conversion by molar mass, not a printed value. Calls of active or inactive are those of the source. The rule behind the calls is not given here.

Tests used:
[1] = Inhibition of bacterial IMP-1 using meropenem as substrate incubated for 1 hr by spectrometry analysis; design: species or system Bacteria
[2] = Inhibition of bacterial ImiS expressed in Escherichia coli BL21 (DE3) using meropenem as substrate incubated for 1 hr by spectrometry analysis; design: species or system Bacteria
[3] = Inhibition of bacterial VIM-2 expressed in Escherichia coli BL21 (DE3) using meropenem as substrate incubated for 1 hr by spectrometry analysis; design: species or system Bacteria
[4] = Inhibition of bacterial NDM-1 expressed in Escherichia coli BL21 (DE3) using meropenem as substrate incubated for 1 hr by spectrometry analysis; design: species or system Bacteria
[5] = Inhibition of bacterial L1 using meropenem as substrate incubated for 1 hr by spectrometry analysis; design: species or system Bacteria
[6] = molecular target: Metallo-beta-lactamase (Escherichia coli) (UniProt Q5U7L7); assay: Inhibition of Escherichia coli VIM-2 assessed as reduction in bacterial growth incubated for 24 hrs by broth microdilution method
[7] = test system: Enterococcus faecium; assay: Antibacterial activity against vancomycin-resistant Enterococcus faecium assessed as reduction in bacterial growth incubated for 24 hrs by broth microdilution method; assay type: functional
[8] = test system: Escherichia coli; assay: Antibacterial activity against Escherichia coli 06 assessed as reduction in bacterial growth incubated for 24 hrs by broth microdilution method; assay type: functional
[9] = test system: Staphylococcus aureus; assay: Antibacterial activity against methicillin-resistant Staphylococcus aureus assessed as reduction in bacterial growth incubated for 24 hrs by broth microdilution method; assay type: functional
[10] = test system: Escherichia coli; assay: Inhibition of Escherichia coli IMP-1 assessed as reduction in bacterial growth incubated for 24 hrs by broth microdilution method
[11] = test system: Escherichia coli; assay: Inhibition of Escherichia coli ImiS assessed as reduction in bacterial growth incubated for 24 hrs by broth microdilution method
[12] = test system: Pseudomonas aeruginosa; assay: Antibacterial activity against Carbapenem-resistant Pseudomonas aeruginosa assessed as reduction in bacterial growth incubated for 24 hrs by broth microdilution method; assay type: functional
[13] = test system: Escherichia coli; assay: Antibacterial activity against Escherichia coli 04 assessed as reduction in bacterial growth incubated for 24 hrs by broth microdilution method; assay type: functional
[14] = test system: Bacteria; assay: Inhibition of bacterial NDM-1 expressed in Escherichia coli BL21 (DE3) at 20 uM using meropenem as substrate incubated for 1 hr by spectrometry analysis relative to control
[15] = test system: Escherichia coli; assay: Antibacterial activity against Escherichia coli 01 assessed as reduction in bacterial growth incubated for 24 hrs by broth microdilution method; assay type: functional
[16] = test system: Klebsiella pneumoniae; assay: Antibacterial activity against Klebsiella pneumoniae assessed as reduction in bacterial growth incubated for 24 hrs by broth microdilution method; assay type: functional
[17] = test system: Escherichia coli; assay: Antibacterial activity against Escherichia coli 08 assessed as reduction in bacterial growth incubated for 24 hrs by broth microdilution method; assay type: functional
[18] = test system: Klebsiella pneumoniae; assay: In vivo antibacterial activity against Klebsiella pneumoniae producing NDM-1 infected in mouse assessed as reduction in bacterial load in liver at 10 mg/kg, ip; assay type: functional, organism-based
[19] = test system: Escherichia coli; assay: Inhibition of Escherichia coli L1 assessed as reduction in bacterial growth incubated for 24 hrs by broth microdilution method
[20] = test system: Escherichia coli; assay: Antibacterial activity against Escherichia coli 24 assessed as reduction in bacterial growth incubated for 24 hrs by broth microdilution method; assay type: functional
[21] = test system: Klebsiella pneumoniae; assay: In vivo antibacterial activity against Klebsiella pneumoniae producing NDM-1 infected in mouse assessed as reduction in bacterial load in spleen at 10 mg/kg, ip; assay type: functional, organism-based
[22] = test system: Escherichia coli; assay: Inhibition of Escherichia coli NDM-1 assessed as reduction in bacterial growth incubated for 24 hrs by broth microdilution method

SMILES	MIC [7]	MIC [8]	MIC [9]	MIC [12]	MIC [13]	MIC [15]	MIC [16]	MIC [17]	MIC [20]	other results
O=C(O)C(=O)CBr [BROMOPYRUVATE]	–	–	–	–	–	–	–	–	–	IC50 [1]: 28.9 µM; IC50 [2]: > 40 µM; IC50 [3]: 18.7 µM; IC50 [4]: 2.57 µM; IC50 [5]: > 40 µM
C[C@@H](O)[C@H]1C(=O)N2C(C(=O)O)=C(S[C@@H]3CN[C@H](C(=O)N(C)C)C3)[C@H](C)[C@H]12 [MEROPENEM]	256 µg/mL (≈ 0.668 mM)	128 µg/mL (≈ 0.334 mM)	64 µg/mL (≈ 0.167 mM)	8 µg/mL (≈ 0.0209 mM)	64 µg/mL (≈ 0.167 mM)	128 µg/mL (≈ 0.334 mM)	256 µg/mL (≈ 0.668 mM)	128 µg/mL (≈ 0.334 mM)	128 µg/mL (≈ 0.334 mM)	MIC [6]: 64 µg/mL (≈ 0.167 mM); MIC [10]: 32 µg/mL (≈ 0.0834 mM); MIC [11]: 64 µg/mL (≈ 0.167 mM); inhibition [14]: > 90%; inhibition [18]: Active; MIC [19]: 128 µg/mL (≈ 0.334 mM); inhibition [21]: Active; MIC [22]: 128 µg/mL (≈ 0.334 mM)
CO/N=C(\C(=O)N[C@@H]1C(=O)N2C(C(=O)O)=C(CSc3nc(=O)c(O)nn3C)CS[C@H]12)c1csc(N)n1 [CEFTRIAXONE]	512 µg/mL (≈ 0.923 mM)	16000 µg/mL (≈ 28.9 mM)	4100 µg/mL (≈ 7.39 mM)	64 µg/mL (≈ 0.115 mM)	16000 µg/mL (≈ 28.9 mM)	16000 µg/mL (≈ 28.9 mM)	8190 µg/mL (≈ 14.8 mM)	16000 µg/mL (≈ 28.9 mM)	16000 µg/mL (≈ 28.9 mM)	–
CC1(C)S[C@@H]2[C@H](NC(=O)[C@H](N)c3ccccc3)C(=O)N2[C@H]1C(=O)O [AMPICILLIN]	> 16000 µg/mL	8190 µg/mL (≈ 23.4 mM)	> 16000 µg/mL	> 16000 µg/mL	> 16000 µg/mL	> 16000 µg/mL	8190 µg/mL (≈ 23.4 mM)	> 16000 µg/mL	16000 µg/mL (≈ 45.8 mM)	–
Cc1nnc(SCC2=C(C(=O)O)N3C(=O)[C@@H](NC(=O)Cn4cnnn4)[C@H]3SC2)s1 [CEFAZOLIN]	8130 µg/mL (≈ 17.9 mM)	4100 µg/mL (≈ 9.01 mM)	4100 µg/mL (≈ 9.01 mM)	> 16000 µg/mL	4100 µg/mL (≈ 9.01 mM)	16000 µg/mL (≈ 35.2 mM)	4100 µg/mL (≈ 9.01 mM)	4100 µg/mL (≈ 9.01 mM)	4100 µg/mL (≈ 9.01 mM)	–
CO/N=C(\C(=O)N[C@@H]1C(=O)N2C(C(=O)O)=C(COC(C)=O)CS[C@H]12)c1csc(N)n1 [CEFOTAXIME]	4100 µg/mL (≈ 8.99 mM)	8190 µg/mL (≈ 18 mM)	1020 µg/mL (≈ 2.25 mM)	> 16000 µg/mL	> 16000 µg/mL	16000 µg/mL (≈ 35.1 mM)	16000 µg/mL (≈ 35.1 mM)	8190 µg/mL (≈ 18 mM)	16000 µg/mL (≈ 35.1 mM)	–
